Experimental data published in PubChem BioAssay (NCI).
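1) Cells in 96-well plates. 2) Compound, 48 h, 5 concentrations. 3) Linear interpolation between surrounding doses. 4) Unreached endpoint = highest concentration. GI50: concentration for 50% inhibition of growth. At the TGI there is no net growth.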

Assays:
Assay in all cases: DTP human tumour cell line panel, 48 h
T-47D breast = test system: T-47D breast
UACC-257 melanoma = test system: UACC-257 melanoma
EKVX NSCLC = test system: EKVX NSCLC
OVCAR-5 ovarian = test system: OVCAR-5 ovarian
MDA-MB-231 breast = test system: MDA-MB-231 breast
UACC-62 melanoma = test system: UACC-62 melanoma
HCT-15 colon = test system: HCT-15 colon
SF-295 CNS = test system: SF-295 CNS
SK-MEL-28 melanoma = test system: SK-MEL-28 melanoma
NCI/ADR-RES ovarian = test system: NCI/ADR-RES ovarian
DU-145 prostate = test system: DU-145 prostate
ACHN renal = test system: ACHN renal
SR leukemia = test system: SR leukemia
NCI-H23 lung = test system: NCI-H23 lung
MOLT-4 leukemia = test system: MOLT-4 leukemia
CAKI-1 renal = test system: CAKI-1 renal
BT-549 breast = test system: BT-549 breast
SNB-19 CNS = test system: SNB-19 CNS
HCT-116 colon = test system: HCT-116 colon
HL-60(TB) leukemia = test system: HL-60(TB) leukemia
U251 CNS = test system: U251 CNS
SF-268 CNS = test system: SF-268 CNS
KM12 colon = test system: KM12 colon
IGROV1 ovarian = test system: IGROV1 ovarian
CCRF-CEM leukemia = test system: CCRF-CEM leukemia
MCF7 breast = test system: MCF7 breast
RPMI-8226 leukemia = test system: RPMI-8226 leukemia
COLO 205 colon = test system: COLO 205 colon
A549 NSCLC = test system: A549 NSCLC
M14 melanoma = test system: M14 melanoma
K-562 leukemia = test system: K-562 leukemia
OVCAR-4 ovarian = test system: OVCAR-4 ovarian
SK-MEL-2 melanoma = test system: SK-MEL-2 melanoma
OVCAR-8 ovarian = test system: OVCAR-8 ovarian
RXF 393 renal = test system: RXF 393 renal
SN12C renal = test system: SN12C renal
UO-31 renal = test system: UO-31 renal
NCI-H460 lung = test system: NCI-H460 lung
MALME-3M melanoma = test system: MALME-3M melanoma
PC-3 prostate = test system: PC-3 prostate
HOP-62 NSCLC = test system: HOP-62 NSCLC
SW-620 colon = test system: SW-620 colon
SF-539 CNS = test system: SF-539 CNS
TK-10 renal = test system: TK-10 renal
SNB-75 CNS = test system: SNB-75 CNS
SK-MEL-5 melanoma = test system: SK-MEL-5 melanoma
A498 renal = test system: A498 renal
OVCAR-3 ovarian = test system: OVCAR-3 ovarian
MDA-MB-435 = test system: MDA-MB-435
HCC-2998 colon = test system: HCC-2998 colon
SK-OV-3 ovarian = test system: SK-OV-3 ovarian
786-0 renal = test system: 786-0 renal
HT29 colon = test system: HT29 colon
LOX IMVI melanoma = test system: LOX IMVI melanoma
NCI-H226 lung = test system: NCI-H226 lung

CCCCCCCCCCCCCCCCCCOc1ccccc1CC(=O)OCC[N+](C)(C)C
GI50 (T-47D breast): 2.06 µM
TGI (T-47D breast): 4.89 µM
GI50 (UACC-257 melanoma): 2.34 µM
TGI (UACC-257 melanoma): 6.34 µM
GI50 (EKVX NSCLC): 2.17 µM
TGI (EKVX NSCLC): 5.4 µM
GI50 (OVCAR-5 ovarian): 1.45 µM
TGI (OVCAR-5 ovarian): 2.89 µM
GI50 (MDA-MB-231 breast): 1.57 µM
TGI (MDA-MB-231 breast): 3.21 µM
GI50 (UACC-62 melanoma): 1.57 µM
TGI (UACC-62 melanoma): 3.51 µM
GI50 (HCT-15 colon): 2.94 µM
TGI (HCT-15 colon): 11.5 µM
GI50 (SF-295 CNS): 2.03 µM
TGI (SF-295 CNS): 4.52 µM
GI50 (SK-MEL-28 melanoma): 1.63 µM
TGI (SK-MEL-28 melanoma): 3.57 µM
GI50 (NCI/ADR-RES ovarian): 9.84 µM
TGI (NCI/ADR-RES ovarian): 35.7 µM
GI50 (DU-145 prostate): 1.71 µM
TGI (DU-145 prostate): 3.09 µM
GI50 (ACHN renal): 1.75 µM
TGI (ACHN renal): 3.72 µM

[N-]=[N+]=Nc1ncc(-c2ccc(C(F)(F)F)cc2)c(NC2CCCCCC2)n1
GI50 (T-47D breast): > 10 µM
TGI (T-47D breast): > 10 µM
GI50 (UACC-257 melanoma): > 10 µM
TGI (UACC-257 melanoma): > 10 µM
GI50 (SR leukemia): > 10 µM
TGI (SR leukemia): > 10 µM
GI50 (NCI-H23 lung): > 10 µM
TGI (NCI-H23 lung): > 10 µM
GI50 (MOLT-4 leukemia): > 10 µM
TGI (MOLT-4 leukemia): > 10 µM
GI50 (CAKI-1 renal): > 10 µM
TGI (CAKI-1 renal): > 10 µM
GI50 (BT-549 breast): > 10 µM
TGI (BT-549 breast): > 10 µM
GI50 (SNB-19 CNS): > 10 µM
TGI (SNB-19 CNS): > 10 µM
GI50 (HCT-116 colon): > 10 µM
TGI (HCT-116 colon): > 10 µM
GI50 (HL-60(TB) leukemia): > 10 µM
TGI (HL-60(TB) leukemia): > 10 µM
GI50 (U251 CNS): > 10 µM
TGI (U251 CNS): > 10 µM
GI50 (SF-268 CNS): > 10 µM
TGI (SF-268 CNS): > 10 µM
GI50 (KM12 colon): > 10 µM
TGI (KM12 colon): > 10 µM
GI50 (IGROV1 ovarian): > 10 µM
TGI (IGROV1 ovarian): > 10 µM
GI50 (CCRF-CEM leukemia): > 10 µM
TGI (CCRF-CEM leukemia): > 10 µM
GI50 (MCF7 breast): > 10 µM
TGI (MCF7 breast): > 10 µM
GI50 (RPMI-8226 leukemia): > 10 µM
TGI (RPMI-8226 leukemia): > 10 µM
GI50 (COLO 205 colon): > 10 µM
TGI (COLO 205 colon): > 10 µM
GI50 (A549 NSCLC): > 10 µM
TGI (A549 NSCLC): > 10 µM
GI50 (M14 melanoma): > 10 µM
TGI (M14 melanoma): > 10 µM
GI50 (K-562 leukemia): > 10 µM
TGI (K-562 leukemia): > 10 µM
GI50 (OVCAR-4 ovarian): > 10 µM
TGI (OVCAR-4 ovarian): > 10 µM
GI50 (OVCAR-5 ovarian): > 10 µM
TGI (OVCAR-5 ovarian): > 10 µM
GI50 (SK-MEL-2 melanoma): > 10 µM
TGI (SK-MEL-2 melanoma): > 10 µM
GI50 (OVCAR-8 ovarian): > 10 µM
TGI (OVCAR-8 ovarian): > 10 µM
GI50 (RXF 393 renal): > 10 µM
TGI (RXF 393 renal): > 10 µM
GI50 (MDA-MB-231 breast): > 10 µM
TGI (MDA-MB-231 breast): > 10 µM
GI50 (SN12C renal): > 10 µM
TGI (SN12C renal): > 10 µM
GI50 (UACC-62 melanoma): > 10 µM
TGI (UACC-62 melanoma): > 10 µM
GI50 (UO-31 renal): > 10 µM
TGI (UO-31 renal): > 10 µM
GI50 (NCI-H460 lung): > 10 µM
TGI (NCI-H460 lung): > 10 µM
GI50 (MALME-3M melanoma): > 10 µM
TGI (MALME-3M melanoma): > 10 µM
GI50 (PC-3 prostate): > 10 µM
TGI (PC-3 prostate): > 10 µM
GI50 (HOP-62 NSCLC): > 10 µM
TGI (HOP-62 NSCLC): > 10 µM
GI50 (SW-620 colon): > 10 µM
TGI (SW-620 colon): > 10 µM
GI50 (SF-539 CNS): > 10 µM
TGI (SF-539 CNS): > 10 µM
GI50 (TK-10 renal): > 10 µM
TGI (TK-10 renal): > 10 µM
GI50 (SNB-75 CNS): > 10 µM
TGI (SNB-75 CNS): > 10 µM
GI50 (SK-MEL-5 melanoma): > 10 µM
TGI (SK-MEL-5 melanoma): > 10 µM
GI50 (HCT-15 colon): > 10 µM
TGI (HCT-15 colon): > 10 µM
GI50 (A498 renal): > 10 µM
TGI (A498 renal): > 10 µM
GI50 (OVCAR-3 ovarian): > 10 µM
TGI (OVCAR-3 ovarian): > 10 µM
GI50 (SF-295 CNS): > 10 µM
TGI (SF-295 CNS): > 10 µM
GI50 (MDA-MB-435): > 10 µM
TGI (MDA-MB-435): > 10 µM
GI50 (HCC-2998 colon): > 10 µM
TGI (HCC-2998 colon): > 10 µM
GI50 (SK-MEL-28 melanoma): > 10 µM
TGI (SK-MEL-28 melanoma): > 10 µM
GI50 (SK-OV-3 ovarian): > 10 µM
TGI (SK-OV-3 ovarian): > 10 µM
GI50 (786-0 renal): > 10 µM
TGI (786-0 renal): > 10 µM
GI50 (NCI/ADR-RES ovarian): > 10 µM
TGI (NCI/ADR-RES ovarian): > 10 µM
GI50 (DU-145 prostate): > 10 µM
TGI (DU-145 prostate): > 10 µM
GI50 (HT29 colon): > 10 µM
TGI (HT29 colon): > 10 µM
GI50 (LOX IMVI melanoma): > 10 µM
TGI (LOX IMVI melanoma): > 10 µM
GI50 (NCI-H226 lung): > 10 µM
TGI (NCI-H226 lung): > 10 µM
GI50 (ACHN renal): > 10 µM
TGI (ACHN renal): > 10 µM
